Reference: patent US5631247A, “Compounds and compositions with nitrogen-containing non-basic side chains” (Eli Lilly and Company, priority 1996, dated 1997)
Where “and” joins values, the source holds several entries; their conditions need not be identical. Equal entries are not always repeated.

Columns and labels:
[1] = system: serum cholesterol; test: Serum cholesterol in ovariectomized rats (post-menopausal rat model, four day dosing); format: in vivo, female Sprague Dawley rats; conditions: oral, daily for 4 days, decrease vs OVX control
Method: (§1) In the examples illustrating the methods, a post-menopausal model was used in which effects of different treatments upon various biological parameters were determined, including serum cholesterol concentration, uterine weight, eosinophil peroxidase activity, MCF-7 cell proliferation, and bone density.
(§2) Animals were dosed daily for 4 days. […] A blood sample was collected by cardiac puncture.
Blood samples were allowed to clot at room temperature for 2 hours, and serum was obtained following centrifugation for 10 minutes at 3000 rpm. Serum cholesterol was determined using a Boshringer Mannheim Diagnostics high performance cholesterol assay. Briefly the cholesterol was oxidized to cholest-4-en-3-one and hydrogen peroxide. The hydrogen peroxide was then reacted with phenol and 4-aminophenazone in the presence of peroxidase to produce a p-quinone imine dye, which was read spectrophotemetrically at 500 nm. Cholesterol concentration was then calculated against a standard curve. The entire assay was automated using a Biomek Automated Workstation.
(§3) Data presented in Table 1 below show comparative results among control ovariectomized rats, rats treated with EE2, and rats treated with certain compounds of the present invention. […] This uterine response to estrogen is well recognized in the art.
(§4) The data presented in Table 1 reflect the response of 5 to 6 rats per treatment.

[2] = system: MCF-7 breast adenocarcinoma cells; test: MCF-7 proliferation assay (tritiated thymidine); format: cell-based; conditions: Homo sapiens, MCF7, 48 hours with drug, read-out: ED50 (the source's name)
Method: MCF-7 breast adenocarcinoma cells (ATCC HTB 22) were maintained in MEM (minimal essential medium, phenol red-free, Sigma, St. Louis, Mo.) supplemented with 10% fetal bovine serum (FBS) (V/V), L-glutamine (2 mM), sodium pyruvate (1 mM), HEPES {(N-[2-hydroxyethyl]piperazine-N'-[2-ethanesulfonic acid]10 mM}, non-essential amino acids and bovine insulin (1 μg/ml) (maintenance medium). Ten days prior to assay, MCF-7 cells were switched to maintenance medium supplemented with 10% dextrancoated charcoal stripped fetal bovine serum (DCC-FBS) assay medium) in place of 10% FBS to deplete internal stores of steroids. MCF-7 cells were removed from maintenance flasks using cell dissociation medium (Ca++/Mg++ free HBSS (phenol red-free) supplemented with 10 mM HEPES and 2 mM EDTA). Cells were washed twice with assay medium and adjusted to 80,000 cells/mi. Approximately […] (8,000 cells) were added to flat-bottom microculture wells (Costar 3596) and incubated at 37° C. in a 5% CO2 humidified incubator for 48 hours to allow for cell adherence and equilibration after transfer. Serial dilutions of drugs or DMSO as a diluent control were prepared in assay medium and […] to triplicate microcultures followed by 50 ml assay medium for a final volume of […]. After an additional 48 hours at 37° C. in a 5% CO2 humidified incubator, microcultures were pulsed with tritiated thymidine (1 uCi/well) for 4 hours. Cultures were terminated by freezing at -70° C. for 24 hours followed by thawing and harvesting of microcultures. Samples were counted by liquid scintillation. Results in Table 3 below show the ED50 for certain compounds of the present invention.

[3] = system: uterus; test: Wet uterine weight in ovariectomized rats (four day dosing); format: in vivo, female Sprague Dawley rats; conditions: Rattus norvegicus, po, 96 h, daily for 4 days, increase vs OVX control, read-out: Uterine Weight (% inc. OVX)
Method: as §1, §2, §3, §4

[4] = system: eosinophil peroxidase; test: Uterine eosinophil peroxidase (EPO) assay in ovariectomized rats (four day dosing); format: in vivo, female Sprague Dawley rats; design: Uterine EPO (Vmax): unit not given here; conditions: oral, daily for 4 days, OVX rats
Method: as §1, §2, §4

Compound	Serum Cholesterol (% dec. OVX) ([1]; 1 mg/kg)	Serum Cholesterol (% dec. OVX) ([1]; 10 mg/kg)	IC50 [2]	change in vivo at 0.01 mg/kg ([3]; 0.01 mg/kg)	Uterine EPO (Vmax) ([4]; 0.01 mg/kg)	change in vivo at 0.1 mg/kg [3]	change in vivo at 1 mg/kg [3]	change in vivo at 10 mg/kg [3]	Uterine EPO (Vmax) ([4]; 0.1 mg/kg)	Uterine EPO (Vmax) ([4]; 1 mg/kg)	Uterine EPO (Vmax) ([4]; 10 mg/kg)
O=C(c1ccc(OCC(=O)N2CCCC2)cc1)c1c(-c2ccc(O)cc2)sc2cc(O)ccc12 [Compound 8]	69.6% and 39.4%	64.5%	10 nM	-22.9%	3.5	–	–	–	–	–	–
O=C(c1ccc(OCC(=O)N2CCCCC2)cc1)c1c(-c2ccc(O)cc2)sc2cc(O)ccc12 [Compound 9]	–	–	10 nM	–	–	-10%	6.5%	51.7%	2.8	3.6	32
CCCCN(C)C(=O)COc1ccc(C(=O)c2c(-c3ccc(O)cc3)sc3cc(O)ccc23)cc1 [Compound 10]	–	–	50 nM	–	–	1.5%	-6.7%	38%	4.3	3.1	17.0
O=C(c1ccc(OCCN2C(=O)CCC2=O)cc1)c1c(-c2ccc(O)cc2)sc2cc(O)ccc12 [Compound 13]	–	–	> 1000 nM	–	–	22.2%	7.2%	-4%	1.9	1.7	2.5
O=C(c1ccc(OCCNC(=O)C2CCCCC2)cc1)c1c(-c2ccc(O)cc2)sc2cc(O)ccc12 [Compound 21]	–	–	–	–	–	-5.5%	-11.5%	8.6%	3.1	2.6	2.4
O=C(c1ccc(OCCN2CCCCC2=O)cc1)c1c(-c2ccc(O)cc2)sc2cc(O)ccc12 [Compound 3]	–	–	600 nM	–	–	13.3%	17.8%	57.6%	8.0	7.8	8.9
CC(C)(C)C(=O)N1CCC(Oc2ccc(C(=O)c3c(-c4ccc(O)cc4)sc4cc(O)ccc34)cc2)CC1 [Compound 23]	–	–	4 nM	–	–	-4.3%	0.8%	22.3%	1.6	3.8	6.7
N#CCOc1ccc(C(=O)c2c(-c3ccc(O)cc3)sc3cc(O)ccc23)cc1 [Compound 14]	–	–	0.05 nM	–	–	18.8%	14.6%	125%	3.3	2.4	145.8
CC(=O)NCCOc1ccc(C(=O)c2c(-c3ccc(O)cc3)sc3cc(O)ccc23)cc1 [Compound 26]	–	–	–	–	–	-17.5%	-28.8%	25.8%	1.3	0.7	–
CC(C#N)Oc1ccc(C(=O)c2c(-c3ccc(O)cc3)sc3cc(O)ccc23)cc1 (stereo not drawn) [Compound 16]	–	–	0.02 nM	–	–	0.7%	27.4%	99.2%	2.3	3.9	–
CN(C)C(=O)COc1ccc(C(=O)c2c(-c3ccc(O)cc3)sc3cc(O)ccc23)cc1 [Compound 12]	–	–	–	–	–	-7.7%	15.4%	60.7%	3.7	6.7	122.3
O=C(NCCOc1ccc(C(=O)c2c(-c3ccc(O)cc3)sc3cc(O)ccc23)cc1)NC1CCCCC1 [Compound 20]	–	–	0.1 nM	–	–	-29.9%	-27.4%	-32.7%	3.0	2.5	2.9
O=C(NCCOc1ccc(C(=O)c2c(-c3ccc(O)cc3)sc3cc(O)ccc23)cc1)c1ccccc1 [Compound 18]	–	–	500 nM	–	–	16.1%	25.7%	12.6%	3.2	3.6	3.6
COc1ccc(-c2sc3cc(OC)ccc3c2C(=O)c2ccc(OCC(=O)N3CCCCC3)cc2)cc1 [Compound 7]	–	–	> 1000 nM	–	–	-0.5%	-16.2%	8.4%	5.2	3.7	4.7
O=C(c1ccc(OCCN2CCCC2=O)cc1)c1c(-c2ccc(O)cc2)sc2cc(O)ccc12 [Compound 6]	–	–	–	–	–	-9%	15.4%	40.3%	3.6	1.4	3.7
CC(=O)N(CCOc1ccc(C(=O)c2c(-c3ccc(O)cc3)sc3cc(O)ccc23)cc1)C1CCCCC1 [Compound 19]	–	–	0.1 nM	–	–	7%	-25.5%	47%	5.4	3.7	29.3
CC(C)(C)C(=O)N1CCCCC1COc1ccc(C(=O)c2c(-c3ccc(O)cc3)sc3cc(O)ccc23)cc1 (stereo not drawn) [Compound 22]	–	–	0.01 nM	–	–	1.9%	19.6%	46.9%	3.5	20.0	69.5
